# Target: T1, human GLP-1 receptor (Homo sapiens, UniProt P43220)
# T1 construct: HA (N); expressed in transfected cells
# Experiment: GLP-1 receptor-mediated agonist activity: cAMP level in hGLP-1R/HEK293 cell line (HTRF)
# Assay type: cell-based
# Conditions: cAMP levels in hGLP-1R/HEK293 cell line; Table 1; read-out: determined EC50
# Procedure: The hGLP-1R/HEK293 cells were digested, centrifuged and resuspended in culture medium (DMEM+0.2% BSA, m/v), and the cell density was adjusted to 2×10^5 cells/mL. IBMX (3-isobutyl-1-methylxanthine, final concentration of 0.5 mM) was added to the cell suspension and added to a 384-well plate at 5 µL (1×10^3 cells)/well. The compound was dissolved in DMSO to prepare a stock solution with a concentration of 10 mM. The experiment started with a concentration of 100 µM which was diluted 10 times in a series of 7 dilution points, with the 8th point being DMSO. 2 µL of the test compound of different concentrations was added to 98 µL of culture medium, shaken and mixed, 5 µL was taken and added to a 384-well plate (final concentration of the test compound was 0-100 nM, final concentration of DMSO was 1%, v/v), which was then incubated in the incubator (37°C, 5% CO2) in the dark for 30 min, then 10 µL of cAMP detection reagent (LANCE Ultra cAMP Detecion Kit, PerkinElmer, #TRF0264) was added, mixed well, and reacted at room temperature in the dark for 1 h. After the reaction was completed, the HTRF signal was read using the Envision 2104 multi-function microplate reader. All samples were tested in triplicate wells, and the ratio of the acceptor-donor excitation signal in each single well was calculated using the formula Ratio = Signal 665nM/Signal 620nM. The HTRF signal ratio and the corresponding compound concentration were analyzed and processed using GraphPad Prism 8 software, and the EC50 value of the compound was obtained by fitting the S-type dose-response curve and calculating.
# T1 sequence (P43220 24-463): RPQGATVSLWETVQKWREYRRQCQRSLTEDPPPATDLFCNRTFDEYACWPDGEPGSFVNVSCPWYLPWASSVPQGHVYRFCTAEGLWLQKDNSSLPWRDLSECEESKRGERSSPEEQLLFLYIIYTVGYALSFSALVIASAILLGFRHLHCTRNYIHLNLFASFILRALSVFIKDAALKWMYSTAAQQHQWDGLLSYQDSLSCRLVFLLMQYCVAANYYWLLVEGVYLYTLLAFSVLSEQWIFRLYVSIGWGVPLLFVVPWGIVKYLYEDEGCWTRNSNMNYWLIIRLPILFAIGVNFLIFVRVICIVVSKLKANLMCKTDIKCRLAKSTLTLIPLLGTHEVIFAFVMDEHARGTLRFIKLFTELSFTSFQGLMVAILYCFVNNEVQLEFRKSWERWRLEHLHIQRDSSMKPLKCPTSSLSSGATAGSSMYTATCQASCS
row,EC50,Compound
1,3.3 pM,"COc1cc(C#N)ccc1COc1ncccc1C1CCN(Cc2nc3c(OC)cc(C(=O)O)cc3n2C[C@@H]2CCO2)CC1 [Compound 34, (S)-2-((4-(2-((4-cyano-2-methoxybenzyl)oxy)pyridin-3-yl)piperidin-1-yl)methyl)-4-methoxy-1-(oxetan-2-ylmethyl)-1H-benzo[d]imidazole-6-carboxylic acid]"
2,27.3 pM,"[2H]C([2H])([2H])Oc1cc(C(=O)O)cc2c1nc(CN1CCN(c3cccc4c3OC(C)(c3ccc(Cl)cn3)O4)C=N1)n2C[C@@H]1CCO1 (stereo partly drawn) [Compound 70, 2-((4-(2-(5-chloropyridin-2-yl)-2-methylbenzo[d][1,3]dioxol-4-yl)-5,6-dihydro-1,2,4-triazin-1(4H)-yl)methyl)-4-(methoxy-d3)-1-(((S)-oxetan-2-yl)methyl)-1H-benzo[d]imidazole-6-carboxylic acid]"
3,10 pM,"[2H]C([2H])([2H])C([2H])([2H])Oc1cc(C(=O)O)cc2c1nc(CN1CCC(c3cccc4c3OC(C)(c3ccc(Cl)cn3)O4)CC1)n2C[C@@H]1CCO1 (stereo partly drawn) [Compound 72, 2-((4-(2-(5-chloropyridin-2-yl)-2-methylbenzo[d][1,3]dioxol-4-yl)piperidin-1-yl)methyl)-4-(ethoxy-d5)-1-(((S)-oxetan-2-yl)methyl)-1H-benzo[d]imidazole-6-carboxylic acid]"
4,1.6 pM,"COc1cc(C(F)(F)F)ccc1COc1cccc(C2CCN(Cc3nc4c(OC)cc(C(=O)O)cc4n3C[C@@H]3CCO3)CC2)n1 [Compound 51, (S)-4-methoxy-2-((4-(6-((2-methoxy-4-(trifluoromethyl)benzyl)oxy)pyridin-2-yl)piperidin-1-yl)methyl)-1-(oxetan-2-ylmethyl)-1H-benzo[d]imidazole-6-carboxylic acid]"
5,7.5 pM,"[2H]C([2H])([2H])Oc1cc(C(=O)O)cc2c1nc(CN1CCN(c3cccc4c3OC(C)(c3ccc(C(F)(F)F)cc3OC)O4)C=N1)n2C[C@@H]1CCO1 (stereo partly drawn) [Compound 89, 4-(Methoxy-d3)-2-((4-(2-(2-methoxy-4-(trifluoromethyl)phenyl)-2-methylbenzo[d][1,3]dioxol-4-yl)-5,6-dihydro-1,2,4-triazin-1(4H)-yl)methyl)-1-(((S)-oxetan-2-yl)methyl)-1H-benzo[d]imidazole-6-carboxylic acid]"
6,22.9 pM,"COc1cc(C(=O)O)cc2c1nc(CN1CCC(c3cccc4c3OC(C)(c3ccc(Cl)cn3)O4)CC1)n2C[C@@H]1CCO1 (stereo partly drawn) [Compound 38, 2-((4-(2-(5-chloropyridin-2-yl)-2-methylbenzo[d][1,3]dioxol-4-yl)piperidin-1-yl)methyl)-4-methoxy-1-(((S)-oxetan-2-yl)methyl)-1H-benzo[d]imidazole-6-carboxylic acid]"
7,9.8 pM,"[2H]C([2H])([2H])Oc1cc(C(=O)O)cc2c1nc(CN1CCN(c3cccc4c3OC(C)(c3ccc(Cl)cc3OC)O4)C=N1)n2C[C@@H]1CCO1 (stereo partly drawn) [Compound 84, 2-((4-(2-(4-chloro-2-methoxyphenyl)-2-methylbenzo[d][1,3]dioxol-4-yl)-5,6-dihydro-1,2,4-triazin-1(4H)-yl)methyl)-4-(methoxy-d3)-1-(((S)-oxetan-2-yl)methyl)-1H-benzo[d]imidazole-6-carboxylic acid]"
8,9.3 pM,"[2H]C([2H])([2H])Oc1cc(C(=O)O)cc2c1nc(CN1CCN(c3cccc(OCc4ccc(Cl)cc4F)n3)C=N1)n2C[C@@H]1CCO1 [Compound 26, (S)-2-((4-(6-((4-chloro-2-fluorobenzyl)oxy)pyridin-2-yl)-5,6-dihydro-1,2,4-triazin-1(4H)-yl)methyl)-4-(methoxy-d3)-1-(oxetan-2-ylmethyl)-1H-benzo[d]imidazole-6-carboxylic acid]"
9,6.1 pM,"CCOc1cc(C(=O)O)cc2c1nc(CN1CCN(c3cccc4c3OC(C)(c3ccc(C(F)(F)F)cc3OC)O4)C=N1)n2C[C@@H]1CCO1 (stereo partly drawn) [Compound 90, 4-ethoxy-2-((4-(2-(2-methoxy-4-(trifluoromethyl)phenyl)-2-methylbenzo[d][1,3]dioxol-4-yl)-5,6-dihydro-1,2,4-triazin-1(4H)-yl)methyl)-1-(((S)-oxetan-2-yl)methyl)-1H-benzo[d]imidazole-6-carboxylic acid]"
10,2.2 pM,"N#Cc1ccc(COc2cccc(N3C=NN(Cc4nc5c(OC6CC6)cc(C(=O)O)cc5n4C[C@@H]4CCO4)CC3)n2)c(F)c1 [Compound 13, (S)-2-((4-(6-((4-cyano-2-fluorobenzyl)oxy)pyridin-2-yl)-5,6-dihydro-1,2,4-triazin-1(4H)-yl)methyl)-4-cyclopropyloxy-1-(oxetan-2-ylmethyl)-1H-benzo[d]imidazole-6-carboxylic acid]"
11,8.5 pM,"COc1cc(C(=O)O)cc2c1nc(CN1CCN(c3cccc(OCc4ccc(C(F)(F)F)cc4F)n3)C=N1)n2C[C@@H]1CCO1 [Compound 22, (S)-2-((4-(6-((2-fluoro-4-(trifluoromethyl)benzyl)oxy)pyridin-2-yl)-5,6-dihydro-1,2,4-triazin-1(4H)-yl)methyl)-4-methoxy-1-(oxetan-2-ylmethyl)-1H-benzo[d]imidazole-6-carboxylic acid]"
12,9.3 pM,"COc1cc(C(=O)O)cc2c1nc(CN1CCC(c3cccc4c3OC(C)(c3ccc(C(F)(F)F)cc3F)O4)CC1)n2C[C@@H]1CCO1 (stereo partly drawn) [Compound 53, 2-((4-(2-(2-fluoro-4-(trifluoromethyl)phenyl)-2-methylbenzo[d][1,3]dioxol-4-yl)piperidin-1-yl)methyl)-4-methoxy-1-(((S)-oxetan-2-yl)methyl)-1H-benzo[d]imidazole-6-carboxylic acid]"
13,44.2 pM,"CCOc1cc(C(=O)O)cc2c1nc(CN1CCN(c3cccc4c3OC(C)(c3cc(F)c(Cl)cc3F)O4)C=N1)n2C[C@@H]1CCO1 (stereo partly drawn) [Compound 79, 2-((4-(2-(4-chloro-2,5-difluorophenyl)-2-methylbenzo[d][1,3]dioxol-4-yl)-5,6-dihydro-1,2,4-triazin-1(4H)-yl)methyl)-4-ethoxy-1-(((S)-oxetan-2-yl)methyl)-1H-benzo[d]imidazole-6-carboxylic acid]"
14,604 pM,"[2H]C([2H])([2H])C([2H])([2H])Oc1cc(C(=O)O)cc2c1nc(CN1CCN(c3cccc4c3O[C@](C)(c3ccc(Cl)cc3F)O4)C=N1)n2C[C@@H]1CCO1 [Compound 76-2, 2-((4-((R)-2-(4-chloro-2-fluorophenyl)-2-methylbenzo[d][1,3]dioxol-4-yl)-5,6-dihydro-1,2,4-triazin-1(4H)-yl)methyl)-4-(ethoxy-d5)-1-(((S)-oxetan-2-yl)methyl)-1H-benzo[d]imidazole-6-carboxylic acid]"
15,2.2 pM,"CCOc1cc(C(=O)O)cc2c1nc(CN1CCC(c3cccc(OCc4ccc(Cl)cc4F)n3)CC1)n2C[C@@H]1CCO1 [Compound 29, (S)-2-((4-(6-((4-chloro-2-fluorobenzyl)oxy)pyridin-2-yl)piperidin-1-yl)methyl)-4-ethoxy-1-(oxetan-2-ylmethyl)-1H-benzo[d]imidazole-6-carboxylic acid]"
16,43.4 pM,"COc1cc(C(=O)O)cc2c1nc(CN1CCC(c3ccccc3OCc3ccc(Cl)cc3F)CC1)n2C[C@@H]1CCO1 [Compound 48, (S)-2-((4-(2-((4-chloro-2-fluorobenzyl)oxy)phenyl)piperidin-1-yl)methyl)-4-methoxy-1-(oxetan-2-ylmethyl)-1H-benzo[d]imidazole-6-carboxylic acid]"
17,11.5 pM,"CCOc1cc(C(=O)O)cc2c1nc(CN1CCN(c3cccc4c3OC(C)(c3ccc(Cl)c(F)c3F)O4)C=N1)n2C[C@@H]1CCO1 (stereo partly drawn) [Compound 78, 2-((4-(2-(4-chloro-2,3-difluorophenyl)-2-methylbenzo[d][1,3]dioxol-4-yl)-5,6-dihydro-1,2,4-triazin-1(4H)-yl)methyl)-4-ethoxy-1-(((S)-oxetan-2-yl)methyl)-1H-benzo[d]imidazole-6-carboxylic acid]"
18,1.9 pM,"COc1cc(C(=O)O)cc2c1nc(CN1CCC(c3cccc(OCc4ccc(C#N)c5c4OCC5)n3)CC1)n2C[C@@H]1CCO1 [Compound 15, (S)-2-((4-(6-((4-cyano-2,3-dihydrobenzofuran-7-yl)methoxy)pyridin-2-yl)piperidin-1-yl)methyl)-4-methoxy-1-(oxetan-2-ylmethyl)-1H-benzo[d]imidazole-6-carboxylic acid]"
19,3.3 pM,"COc1cc(C(=O)O)cc2c1nc(CN1CCC(c3cccc(OCc4ccc(Cl)c5c4OCC5)n3)CC1)n2C[C@@H]1CCO1 [Compound 16, (S)-2-((4-(6-((4-chloro-2,3-dihydrobenzofuran-7-yl)methoxy)pyridin-2-yl)piperidin-1-yl)methyl)-4-methoxy-1-(oxetan-2-ylmethyl)-1H-benzo[d]imidazole-6-carboxylic acid]"
20,3.4 pM,"COc1cc(C(=O)O)cc2c1nc(CN1CCN(c3cccc(OCc4ccc(C#N)cc4F)n3)C=N1)n2C[C@@H]1CCO1 [Compound 8, (S)-2-((4-(6-((4-cyano-2-fluorobenzyl)oxy)pyridin-2-yl)-5,6-dihydro-1,2,4-triazin-1(4H)-yl)methyl)-4-methoxy-1-(oxetan-2-ylmethyl)-1H-benzo[d]imidazole-6-carboxylic acid]"
21,3 pM,"[2H]C([2H])([2H])C([2H])([2H])Oc1cc(C(=O)O)cc2c1nc(CN1CCC(c3cccc4c3OC(C)(c3ccc(Cl)cc3F)O4)CC1)n2C[C@@H]1CCO1 (stereo partly drawn) [Compound 75, 2-((4-(2-(4-chloro-2-fluorophenyl)-2-methylbenzo[d][1,3]dioxol-4-yl)piperidin-1-yl)methyl)-4-(ethoxy-d5)-1-(((S)-oxetan-2-yl)methyl)-1H-benzo[d]imidazole-6-carboxylic acid]"

row,Compound,EC50
1,"4-methoxy-2-((4-(2-(2-methoxy-4-(trifluoromethyl)phenyl)-2-methylbenzo[d][1,3]dioxol-4-yl)piperidin-1-yl)methyl)-1-((S)-oxetan-2-yl)methyl]-1H-benzo[d]imidazole-6-carboxylic acid [Compound 59]",3.1 pM

# Same assay, conditions: cAMP levels of the hGLP-1R/HEK293 cell line; Table 2, comparison with reference compounds; read-out: EC50
row,EC50,Compound
1,28.9 pM,"O=C(O)c1ccc2nc(CN3CCN(c4cccc(OCc5ccc(Cl)cc5F)n4)CC3)n(C[C@@H]3CCO3)c2c1 [WO2018109607 , Example 10A-08, reference compound]"

# Source: EP4650353A1 (Shanghai Institute of Materia Medica, Chinese Academy of …, priority 2023, dated 2024)
